Measurements taken from PubChem BioAssay (NCI).
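Results reflect a 48-hour exposure of cells in 96-well plates to compound at five concentrations. TGI denotes the concentration required for complete inhibition of growth.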

Columns and labels:
Experiment in all cases: NCI anticancer screen, dose series, 48 h
RXF 393 renal = test system: RXF 393 renal
A498 renal = test system: A498 renal
HOP-92 NSCLC = test system: HOP-92 NSCLC
OVCAR-8 ovarian = test system: OVCAR-8 ovarian
SK-MEL-5 melanoma = test system: SK-MEL-5 melanoma
SR leukemia = test system: SR leukemia
HCT-15 colon = test system: HCT-15 colon
KM12 colon = test system: KM12 colon
SF-268 CNS = test system: SF-268 CNS
SK-MEL-2 melanoma = test system: SK-MEL-2 melanoma
OVCAR-5 ovarian = test system: OVCAR-5 ovarian
SK-MEL-28 melanoma = test system: SK-MEL-28 melanoma
IGROV1 ovarian = test system: IGROV1 ovarian
MCF7 breast = test system: MCF7 breast
U251 CNS = test system: U251 CNS
UO-31 renal = test system: UO-31 renal
HOP-62 NSCLC = test system: HOP-62 NSCLC
NCI-H226 lung = test system: NCI-H226 lung
MDA-MB-435 = test system: MDA-MB-435
TK-10 renal = test system: TK-10 renal

## C=C(C)[C@@H](O)[C@H](O)C[C@H](C)C1CC[C@]2(C)C1=CC[C@@H]1[C@@]3(C)CC[C@@H](OC(C)=O)C(C)(C)[C@@H]3C[C@@H](OC3OC(COC(C)=O)C(O)C(O)C3O)[C@]12C (stereo not given in full)
RXF 393 renal
  TGI: 4.49 µM
A498 renal
  TGI: 10.4 µM
HOP-92 NSCLC
  TGI: 6.17 µM
OVCAR-8 ovarian
  TGI: 13.8 µM
SK-MEL-5 melanoma
  TGI: 3.73 µM
SR leukemia
  TGI: 4.2 µM
HCT-15 colon
  TGI: 11.7 µM
KM12 colon
  TGI: 2.95 µM
SF-268 CNS
  TGI: 9.86 µM
SK-MEL-2 melanoma
  TGI: 3.63 µM
OVCAR-5 ovarian
  TGI: 4.43 µM
SK-MEL-28 melanoma
  TGI: 6.08 µM
IGROV1 ovarian
  TGI: 6.4 µM
MCF7 breast
  TGI: 8.82 µM
U251 CNS
  TGI: 5.86 µM
UO-31 renal
  TGI: 12.4 µM
HOP-62 NSCLC
  TGI: 10.1 µM
NCI-H226 lung
  TGI: 10.3 µM
MDA-MB-435
  TGI: 4.42 µM
TK-10 renal
  TGI: 10.6 µM

## O=C1/C(=C/c2ccc(O)cc2)CCCC1CN1CCCCC1 (stereo not given)
RXF 393 renal
  TGI: 27.1 µM
A498 renal
  TGI: 20.4 µM
HOP-92 NSCLC
  TGI: 3.47 µM
OVCAR-8 ovarian
  TGI: 13.6 µM
SK-MEL-5 melanoma
  TGI: 17.8 µM
SR leukemia
  TGI: 4.35 µM
HCT-15 colon
  TGI: 2.71 µM
KM12 colon
  TGI: 4.93 µM
SF-268 CNS
  TGI: 11.9 µM
SK-MEL-2 melanoma
  TGI: 26.9 µM
OVCAR-5 ovarian
  TGI: 30.8 µM
SK-MEL-28 melanoma
  TGI: 10.6 µM
IGROV1 ovarian
  TGI: 3.8 µM
MCF7 breast
  TGI: 6.49 µM
U251 CNS
  TGI: 22.3 µM
UO-31 renal
  TGI: 5.88 µM
HOP-62 NSCLC
  TGI: 29.8 µM
NCI-H226 lung
  TGI: 18.2 µM
MDA-MB-435
  TGI: 21.3 µM
TK-10 renal
  TGI: 8.64 µM

## O=c1c2c3c(sc2nc2n1N=CN(c1ccccc1)C2)CCCC3
RXF 393 renal
  TGI: > 100 µM
A498 renal
  TGI: > 100 µM
HOP-92 NSCLC
  TGI: > 100 µM
OVCAR-8 ovarian
  TGI: > 100 µM
SK-MEL-5 melanoma
  TGI: > 100 µM
SR leukemia
  TGI: > 100 µM
HCT-15 colon
  TGI: > 100 µM
KM12 colon
  TGI: > 100 µM
SF-268 CNS
  TGI: > 100 µM
SK-MEL-2 melanoma
  TGI: > 100 µM
OVCAR-5 ovarian
  TGI: > 100 µM
SK-MEL-28 melanoma
  TGI: > 100 µM
IGROV1 ovarian
  TGI: > 100 µM
MCF7 breast
  TGI: > 100 µM
U251 CNS
  TGI: > 100 µM
UO-31 renal
  TGI: > 100 µM
HOP-62 NSCLC
  TGI: > 100 µM
NCI-H226 lung
  TGI: > 100 µM
MDA-MB-435
  TGI: > 100 µM
TK-10 renal
  TGI: > 100 µM

## Cc1nnc(N)nc1/C=C\c1ccc(Cl)cc1Cl
RXF 393 renal
  TGI: > 100 µM
A498 renal
  TGI: > 100 µM
HOP-92 NSCLC
  TGI: > 100 µM
OVCAR-8 ovarian
  TGI: > 100 µM
SK-MEL-5 melanoma
  TGI: 81.5 µM
SR leukemia
  TGI: > 100 µM
HCT-15 colon
  TGI: > 100 µM
KM12 colon
  TGI: 32.6 µM
SF-268 CNS
  TGI: > 100 µM
SK-MEL-2 melanoma
  TGI: 32.6 µM
OVCAR-5 ovarian
  TGI: > 100 µM
SK-MEL-28 melanoma
  TGI: > 100 µM
IGROV1 ovarian
  TGI: 39.4 µM
MCF7 breast
  TGI: > 100 µM
U251 CNS
  TGI: > 100 µM
UO-31 renal
  TGI: > 100 µM
HOP-62 NSCLC
  TGI: 36.3 µM
NCI-H226 lung
  TGI: 46.2 µM
MDA-MB-435
  TGI: > 100 µM
TK-10 renal
  TGI: > 100 µM

## CC(C)NC(=O)OCc1c(COC(=O)NC(C)C)c(-c2ccc[n+](COC(=O)Cc3ccccc3)c2)n2c1CCC2
RXF 393 renal
  TGI: 67.3 µM
A498 renal
  TGI: 44.7 µM
HOP-92 NSCLC
  TGI: 46.2 µM
OVCAR-8 ovarian
  TGI: > 100 µM
SK-MEL-5 melanoma
  TGI: > 100 µM
SR leukemia
  TGI: > 100 µM
HCT-15 colon
  TGI: > 100 µM
KM12 colon
  TGI: > 100 µM
SF-268 CNS
  TGI: 68 µM
SK-MEL-2 melanoma
  TGI: 62.1 µM
OVCAR-5 ovarian
  TGI: > 100 µM
SK-MEL-28 melanoma
  TGI: > 100 µM
IGROV1 ovarian
  TGI: > 100 µM
MCF7 breast
  TGI: > 100 µM
U251 CNS
  TGI: > 100 µM
UO-31 renal
  TGI: 70.8 µM
HOP-62 NSCLC
  TGI: > 100 µM
NCI-H226 lung
  TGI: > 100 µM
MDA-MB-435
  TGI: > 100 µM
TK-10 renal
  TGI: > 100 µM

## Cn1c2ccc(F)cc2c2ccc3c(c21)C(=O)C=CC3=O
RXF 393 renal
  TGI: 10.5 µM
A498 renal
  TGI: > 100 µM
HOP-92 NSCLC
  TGI: 15.5 µM
OVCAR-8 ovarian
  TGI: 26.1 µM
SK-MEL-5 melanoma
  TGI: 56.4 µM
SR leukemia
  TGI: > 20.2 µM
HCT-15 colon
  TGI: 28.3 µM
KM12 colon
  TGI: > 91.9 µM
SF-268 CNS
  TGI: 58.2 µM
SK-MEL-2 melanoma
  TGI: > 74.2 µM
OVCAR-5 ovarian
  TGI: > 73.4 µM
SK-MEL-28 melanoma
  TGI: 28.5 µM
IGROV1 ovarian
  TGI: 39 µM
MCF7 breast
  TGI: 16.5 µM
U251 CNS
  TGI: 23.9 µM
UO-31 renal
  TGI: 14.9 µM
HOP-62 NSCLC
  TGI: > 100 µM
NCI-H226 lung
  TGI: > 91.3 µM
MDA-MB-435
  TGI: 38.1 µM
TK-10 renal
  TGI: 13.7 µM

## Cn1cnc(N2CCCC2)c(C#N)c1=S
RXF 393 renal
  TGI: > 100 µM
A498 renal
  TGI: > 100 µM
HOP-92 NSCLC
  TGI: > 100 µM
OVCAR-8 ovarian
  TGI: > 100 µM
SK-MEL-5 melanoma
  TGI: > 100 µM
SR leukemia
  TGI: > 100 µM
HCT-15 colon
  TGI: > 100 µM
KM12 colon
  TGI: > 100 µM
SF-268 CNS
  TGI: > 100 µM
SK-MEL-2 melanoma
  TGI: > 100 µM
OVCAR-5 ovarian
  TGI: > 100 µM
SK-MEL-28 melanoma
  TGI: > 100 µM
IGROV1 ovarian
  TGI: > 100 µM
MCF7 breast
  TGI: > 100 µM
U251 CNS
  TGI: > 100 µM
UO-31 renal
  TGI: 70.3 µM
HOP-62 NSCLC
  TGI: > 100 µM
NCI-H226 lung
  TGI: > 100 µM
MDA-MB-435
  TGI: > 100 µM
TK-10 renal
  TGI: > 100 µM

## O=C(CCBr)N1CCN(C(=O)CCBr)CC1
RXF 393 renal
  TGI: 150 µM
A498 renal
  TGI: 165 µM
HOP-92 NSCLC
  TGI: 284 µM
OVCAR-8 ovarian
  TGI: 246 µM
SK-MEL-5 melanoma
  TGI: 149 µM
SR leukemia
  TGI: 174 µM
HCT-15 colon
  TGI: 222 µM
KM12 colon
  TGI: 181 µM
SF-268 CNS
  TGI: 153 µM
SK-MEL-2 melanoma
  TGI: 221 µM
OVCAR-5 ovarian
  TGI: 189 µM
SK-MEL-28 melanoma
  TGI: 252 µM
IGROV1 ovarian
  TGI: 245 µM
MCF7 breast
  TGI: 215 µM
U251 CNS
  TGI: 114 µM
UO-31 renal
  TGI: 293 µM
HOP-62 NSCLC
  TGI: 155 µM
NCI-H226 lung
  TGI: 201 µM
MDA-MB-435
  TGI: 245 µM
TK-10 renal
  TGI: 488 µM

## Cc1nn(C(=O)c2ccccc2O)c2c1C(c1ccc(O)cc1O)SC(N)=N2 (stereo not given)
RXF 393 renal
  TGI: > 10 µM
A498 renal
  TGI: > 10 µM
HOP-92 NSCLC
  TGI: > 10 µM
OVCAR-8 ovarian
  TGI: > 10 µM
SK-MEL-5 melanoma
  TGI: > 10 µM
SR leukemia
  TGI: > 10 µM
HCT-15 colon
  TGI: > 10 µM
KM12 colon
  TGI: > 10 µM
SF-268 CNS
  TGI: > 10 µM
SK-MEL-2 melanoma
  TGI: > 10 µM
OVCAR-5 ovarian
  TGI: 3.91 µM
SK-MEL-28 melanoma
  TGI: > 10 µM
IGROV1 ovarian
  TGI: > 10 µM
MCF7 breast
  TGI: > 10 µM
U251 CNS
  TGI: > 10 µM
UO-31 renal
  TGI: 8.02 µM
HOP-62 NSCLC
  TGI: > 10 µM
NCI-H226 lung
  TGI: 3.82 µM
MDA-MB-435
  TGI: > 10 µM
TK-10 renal
  TGI: > 10 µM
